# Measurements: patent publication US11753373B2, “Protease inhibitors as antivirals” (priority 2021, dated 2023)
# Where two headings read alike, the source gives them in different places.
# Columns and labels:
# [1] = type: in vitro ADME; settings: extraction ratio, compound at 1 uM; for Liver Microsomal Stability (ER) SD rat: SD rat liver microsomes 0.5 mg/mL; for Liver Microsomal Stability (ER) Beagle dog: beagle dog liver microsomes 0.5 mg/mL; for Liver Microsomal Stability (ER) Monkey: monkey liver microsomes 0.5 mg/mL; for Liver Microsomal Stability (ER) Mouse: mouse liver microsomes 0.5 mg/mL
# [2] = type: in vitro ADME, Human; settings: extraction ratio, compound at 1 uM, human liver microsomes 0.5 mg/mL
# SARS-CoV-2 = assay: Anti-viral in vitro PRNT assay in Vero E6 cells; type: cell-based; settings: Severe acute respiratory syndrome coronavirus 2, Vero C1008, 72 h; Vero E6 cells, 1000 pfu, 3 days, plaque reduction; read-out: anti-SARS-CoV2 (PRNT) in Vero E6 EC50
# [3] = target: SARS-CoV-2 M^pro (3CL protease) (Severe acute respiratory syndrome coronavirus 2 (2019-nCoV) (SARS-CoV-2), UniProt P0DTD1); type: biochemical; settings: read-out: SARS-CoV-2M^pro inhibition IC50
# [4] = wild type Mpro 17 nM, substrate 40 uM
structure (smiles),measurement,setting,value
"CC(C)C[C@H](NC(=O)c1cc2ccccc2[nH]1)C(=O)N[C@@H](C[C@@H]1CCNC1=O)C(=O)CCl [Compound A-1-g, (2S)—N-[(2S)-4-chloro-3-oxo-1-[(3S)-2-oxopyrrolidin-3-yl]butan-2-yl]-2-[(1H-indol-2-yl)formamido]-4-methylpentanamide]",Liver Microsomal Stability (ER) SD rat,[1],0.77
same,Liver Microsomal Stability (ER) Beagle dog,[1],0.71
same,Liver Microsomal Stability (ER) Monkey,[1],0.68
same,Liver Microsomal Stability (ER) Mouse,[1],0.53
same,Liver Microsomal Stability (ER) Human,[2],0.80
same,EC50,SARS-CoV-2,18200 nM
same,IC50,[3],47 nM
"CC(C)C[C@H](NC(=O)c1cc2ccccc2[nH]1)C(=O)N1C[C@H]2[C@@H]([C@H]1C(=O)N[C@@H](C[C@@H]1CCNC1=O)C(=O)CCl)C2(C)C [Compound G-1-d, N-[(2S)-1-[(1R,2S,5S)-2-{[(2S)-4-chloro-3-oxo-1-[(3S)-2-oxopyrrolidin-3-yl]butan-2-yl]carbamoyl}-1,5-dihydrogenio-6,6-dimethyl-3-azabicyclo[3.1.0]hexan-3-yl]-4-methyl-1-oxopentan-2-yl]-1H-indole-2-carboxamide]",Liver Microsomal Stability (ER) SD rat,[1],0.78
same,Liver Microsomal Stability (ER) Beagle dog,[1],0.81
same,Liver Microsomal Stability (ER) Monkey,[1],0.92
same,Liver Microsomal Stability (ER) Mouse,[1],0.59
same,Liver Microsomal Stability (ER) Human,[2],0.83
same,IC50,[3],968 nM
CC(C)C[C@H](NC(=O)c1cc2ccccc2[nH]1)C(=O)N1C[C@H]2[C@@H]([C@H]1C(=O)N[C@@H](C[C@@H]1CCNC1=O)C(=O)CO)C2(C)C [Compound G-1-e],Liver Microsomal Stability (ER) SD rat,[1],0.07
same,Liver Microsomal Stability (ER) Beagle dog,[1],0.07
same,Liver Microsomal Stability (ER) Mouse,[1],0.25
same,Liver Microsomal Stability (ER) Human,[2],0.17
same,IC50,[3]; [4],57.9 nM
CC(C)C[C@H](NC(=O)c1cc2ccccc2[nH]1)C(=O)N1C[C@H]2[C@@H]([C@H]1C(=O)N[C@H](C=O)C(C)C)C2(C)C [Compound G-2-a],Liver Microsomal Stability (ER) SD rat,[1],0.53
same,Liver Microsomal Stability (ER) Beagle dog,[1],0.56
same,Liver Microsomal Stability (ER) Monkey,[1],0.48
same,Liver Microsomal Stability (ER) Mouse,[1],0.16
same,Liver Microsomal Stability (ER) Human,[2],0.54
same,IC50,[3]; [4],> 2000 nM
CC(C)C[C@H](NC(=O)c1cc2ccccc2[nH]1)C(=O)N1C[C@H]2[C@@H]([C@H]1C(=O)N[C@H](C(=O)CCl)C(C)C)C2(C)C [Compound G-2-c],Liver Microsomal Stability (ER) SD rat,[1],0.79
same,Liver Microsomal Stability (ER) Beagle dog,[1],0.84
same,Liver Microsomal Stability (ER) Mouse,[1],0.92
same,Liver Microsomal Stability (ER) Human,[2],0.85
same,IC50,[3]; [4],> 2000 nM
CC(C)C[C@H](NC(=O)c1cc2ccccc2[nH]1)C(=O)N1C[C@H]2[C@@H]([C@H]1C(=O)N[C@H](C=O)C(C)(C)C)C2(C)C [Compound G-3-a],Liver Microsomal Stability (ER) SD rat,[1],0.54
same,Liver Microsomal Stability (ER) Beagle dog,[1],0.62
same,Liver Microsomal Stability (ER) Mouse,[1],0.78
same,Liver Microsomal Stability (ER) Human,[2],0.70
same,IC50,[3]; [4],> 10000 nM
CC(C)C[C@H](NC(=O)C(F)(F)F)C(=O)N1C[C@H]2[C@@H]([C@H]1C(=O)N[C@H](C#N)C[C@@H]1CCNC1=O)C2(C)C [Compound H-1-c],Liver Microsomal Stability (ER) SD rat,[1],0.06
same,Liver Microsomal Stability (ER) Beagle dog,[1],0.02
same,Liver Microsomal Stability (ER) Mouse,[1],0.44
same,Liver Microsomal Stability (ER) Human,[2],0.15
same,IC50,[3]; [4],36.7 nM
CC(C)C[C@H](NC(=O)C(C)C)C(=O)N1C[C@H]2[C@@H]([C@H]1C(=O)N[C@H](C#N)C[C@@H]1CCNC1=O)C2(C)C [Compound H-1-e],Liver Microsomal Stability (ER) SD rat,[1],0.06
same,Liver Microsomal Stability (ER) Beagle dog,[1],0.05
same,Liver Microsomal Stability (ER) Mouse,[1],0.31
same,Liver Microsomal Stability (ER) Human,[2],0.05
same,IC50,[3]; [4],43.3 nM
CC(C)C(=O)N[C@H](C(=O)N1C[C@H]2[C@@H]([C@H]1C(=O)N[C@@H](C[C@@H]1CCNC1=O)C(N)=O)C2(C)C)C(C)(C)C [Compound H-2-b],Liver Microsomal Stability (ER) SD rat,[1],0.37
same,Liver Microsomal Stability (ER) Beagle dog,[1],0.06
same,Liver Microsomal Stability (ER) Mouse,[1],0.37
same,Liver Microsomal Stability (ER) Human,[2],0.18
same,IC50,[3]; [4],6.6 nM
